Series [1] is described as follows: logP(neutral) by reverse phase chromatography, potassium dihydrogen phosphate / acetonitrile. It is filed as physicochemical.
In series [2] the test system is Spodoptera litura third instar larvae. Briefly: Test to larva of Spodoptera litura (sweet potato leaf dip). It is filed as in vivo. The following applies: foliar, 168 h, read-out: insect mortality. The protocol: Test to Larva of Spodoptera litura
(§1) Solvent: dimethylformamide 3 parts by weight Emulsifier: polyoxyethylene alkyl phenyl ether 1 part by weight
(§2) In order to prepare preparations of suitable active compounds, 1 part by weight of each of the active compounds was blended with the above amount of the solvent containing the above amount of the emulsifier, and the resulting mixture was diluted to a prescribed concentration with water.
Leaves of sweet potato were immersed in the tested liquid medication of a prescribed concentration diluted with water. After air drying of the liquid medication, the leaves were put into a petri dish of a diameter of 9 cm, and 10 Spodoptera litura third instar larvae were released in the petri dish, and the petri dish was placed in a constant temperature room of 25° C. Two days later and four days later, leaves of sweet potato were added. Seven days later, the number of dead insects was examined, and insect mortality was calculated.
In the present test, results of 2 petri dishes for each compound were averaged.

The test system of series [3] is Myzus persicae resistant to organophosphorus pesticide and carbamate agent. Put plainly: Test to Myzus persicae resistant to organophosphorus pesticide and carbamate agent (egg plant seedlings). It is filed as in vivo. The following applies: 168 h, effective ingredient concentration 100 ppm, seven days after spraying, read-out: pesticide effect, insect mortality. The protocol: Test to Myzus persicae resistant to organophosphorus pesticide and carbamate agent
as §1, §2
On egg plant seedlings planted in a plastic pot of a diameter of 6 cm, 30 bred Myzus persicae resistant to organophosphorus pesticide and carbamate agent per one seedling were inoculated. After 1 day elapsed since the inoculation, a sufficient amount of the solution diluted with water and having a prescribed concentration of the active compound was sprayed. After the spraying, the pot was allowed to stand in a greenhouse of 28° C. After seven days elapsed since the spraying, insect mortality was calculated. The test was carried out twice.

Series [4] concerns Myzus persicae. Put plainly: Test to Myzus persicae (Brassica pekinensis leaf disc spray). Type of series: in vivo. The following applies: foliar, read-out: pesticide effect, insect mortality. The protocol: Solvent: acetone 78.0 parts by weight and dimethylformamide 1.5 parts by weight Emulsifier: alkyl aryl polyglycol ether 0.5 parts by weight
as §2
On a leaf disc of Brassica pekinensis, Myzus persicae including all growth stage was inoculated. The solution diluted with water and having a prescribed concentration of the active compound was sprayed by a spray gun. Insect mortality was calculated after prescribed days elapsed. 100% insect mortality means that all the individuals died, and 0% insect mortality means that all the individuals were alive.

Setting [5] is: potassium dihydrogen phosphate / acetonitrile.
Setting [6] is: 0.0025M potassium dihydrogen phosphate aqueous solution / acetonitrile, linear gradient 10-95% acetonitrile.

Consider 12 compounds from US20110184188A1, “Insecticidal Benzenedicarboxamide Derivative” (priority 2008, published 2011).

Read-outs that look alike come from different tables or passages of the source. Where only a bound is given, the exact number is not on record here.

`Cc1nc(Cn2cc(C(F)(F)C(F)(F)F)c(C(F)(F)C(F)(F)F)n2)ccc1NC(=O)c1cccc(I)c1C(=O)NC(C)C[S+](C)[O-]` (mixture of isomers) [13-159]: the “logP (neutral)” value in series [1] (setting [5]) is on record as 3.08.

On to `CSC[C@H](C)NC(=O)c1c(Cl)cccc1C(=O)Nc1ccc(Cn2nc(C(F)(F)F)n(C)c2=O)nc1C` [14-320], for which, in series [1] (setting [5]), the “logP (neutral)” value stood at 2.16.

`CSC[C@H](C)NC(=O)c1c(C(=O)Nc2ccc(Cn3nc(C(F)(F)F)cc3C(F)(F)F)nc2C)cccc1S(=O)(=O)N(C)C` [13-287]: the “logP (neutral)” value in series [1] (setting [5]) is 3.42.

As usually defined, the mortality is the share of the test organisms that died. In the case of `CSC[C@H](C)NC(=O)c1c(OC(F)(F)F)cccc1C(=O)Nc1ccc(Cn2nc(C(F)(F)F)cc2C(F)(F)F)cc1C` [13-13, N^1-(4-{[3,5-bis(trifluoromethyl)-1H-pyrazol-1-yl]methyl}-2-methylphenyl)-N^2-[(1S)-1-methyl-2-(methylthio)ethyl]-3-(trifluoromethoxy)-1,2-benzenedicarboxamide], the mortality at 20 ppm in series [2] (Spodoptera litura) came out at 100%. In addition, the mortality at 100 ppm in series [3] was found to be 100%. The mortality at 100 g/ha in series [4] was at least 70%.

`CSC[C@H](C)NC(=O)c1c(Cl)cccc1C(=O)Nc1ccc(CN2N=C(C(F)(F)C(F)(F)F)NC2C(F)(F)F)cc1C` (stereo partly drawn) [16-4, 3-chloro-N^1-(2-methyl-4-{[3-(pentafluoroethyl)-5-(trifluoromethyl)-4,5-dihydro-1H-1,2,4-triazol-1-yl]methyl}phenyl)-N^2-[(1S)-1-methyl-2-(methylthio)ethyl]-1,2-benzenedicarboxamide]: in series [2] (Spodoptera litura), the mortality at 20 ppm was found to be 100%. Besides, the mortality at 100 ppm in series [3] came to 100%.

In the case of `CSC[C@H](C)NC(=O)c1c(C#N)cccc1C(=O)Nc1ccc(Cn2nc(C(F)(F)F)cc2C(F)(F)F)cc1C` [13-172, N^1-(4-{[3,5-bis(trifluoromethyl)-1H-pyrazol-1-yl]methyl}-2-methylphenyl)-3-cyano-N^2-[(1S)-1-methyl-2-(methylthio)ethyl]-1,2-benzenedicarboxamide], the mortality at 20 ppm in series [2] (Spodoptera litura) stood at 100%. The mortality at 100 ppm in series [3] was determined as 100%. For the same compound, in series [4], the mortality at 100 g/ha is at least 70%.

For `Cc1cc(Cn2nc(C(F)(F)C(F)(F)F)nc2C(F)(F)F)ccc1NC(=O)c1ccc(C(F)(F)F)c(Cl)c1C(=O)N[C@@H](C)C[S+](C)[O-]` (stereo partly drawn) [9-24], in series [1] (setting [6]), the “logP (neutral)” value is given as “logP (neutral) 3.13”.

Consider `CCSC[C@H](C)NC(=O)c1c(SC)cccc1C(=O)Nc1ccc(Cn2nc(C(F)(F)F)cc2C(F)(F)F)cc1C` [13-291, N^1-(4-{[3,5-bis(trifluoromethyl)-1H-pyrazol-1-yl]methyl}-2-methylphenyl)-N^2-[(1S)-1-methyl-2-(ethylthio)ethyl]-3-methylthio-1,2-benzenedicarboxamide], for which, in series [2] (Spodoptera litura third instar larvae, active ingredient concentration 20 ppm, seven days later, 25° C.), the mortality at 20 ppm is 100%. For the same compound, the mortality at 100 g/ha in series [4] (spraying amount 100 g/ha) was at least 70%.

With `Cc1nc(Cn2nc(C(F)(F)F)cc2C(F)(F)F)ccc1NC(=O)c1cc(Cl)cc(Cl)c1C(=O)N[C@@H](C)CS(C)(=O)=O` [10-3], in series [1] (setting [5]), the “logP (neutral)” value was found to be 3.10.

Turning to `CSC[C@H](C)NC(=O)c1c(C(=O)Nc2ccc(Cn3nc(C(F)(F)F)cc3C(F)(F)F)nc2C)ccc(F)c1Br` [9-10], the “logP (neutral)” value in series [1] (setting [6]) is “logP (neutral) 3.74”.

On to `CSC[C@H](C)NC(=O)c1c(Br)cccc1C(=O)Nc1ccc(Cn2nc(C(F)(F)C(F)(F)C(F)(F)F)cc2C(F)(F)F)nc1C` [13-128], for which the “logP (neutral)” value in series [1] (setting [5]) was found to be 4.42.

For `Cc1cc(Cn2nc(C(F)(F)C(F)(F)F)nc2C(F)(F)F)ccc1NC(=O)c1c(Cl)ccc(Cl)c1C(=O)N[C@@H](C)C[S+](C)[O-]` (stereo partly drawn) [11-28], the “logP (neutral)” value in series [1] (setting [5]) was “logP (neutral) 2.90”.
